Consider 24 compounds from US20240368133A1, “Compounds for the Treatment of Pain, in Particular, Neuropathic Pain, and/or Other Diseases or Disorders that are Associated with AT2R and/or AT2R Mediated Signaling” (Confo Therapeutics N.V., priority 2021, published 2024).

In experiment [1] the target is human AT2R fused to Cb23 (Homo sapiens, UniProt P50052). The experiment in a line: Radioligand binding assay, displacement of 125I-[Sar1, Ile8]-Angiotensin II, hAT2R Cb23. Particulars: displacement of 125I-[Sar1, Ile8]-Angiotensin II, human AT2R fused to Cb23, HEK-293 cell membrane preparations; read-out: Binding affinity on hAT2R_Cb23 IC50. The procedure, abridged:
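Membranes from HEK-293 cells expressing human AT2R fused to Cb23 were incubated with 0.05 nM 125I-[Sar1, Ile8]-Angiotensin II in 100 μL buffer (50 mM Tris, 5 mM MgCl2, 1 mM EDTA, 0.1% BSA, pH 7.4) for one hour at 25° C. Ligands were tested as eight-point dose-response curves in duplicate, with C21 and Angiotensin II as references.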
(In general: Displacement assays read how much labelled ligand stays bound in the presence of the test substance.)

Experiment [2] deals with human AT1R (Homo sapiens (Human), UniProt P30556). The experiment in a line: Counterscreen radioligand binding assay, displacement of 125I-[Sar1, Ile8]-Angiotensin II, hAT1R WT. Particulars: for inhibition at 1 µM / inhibition at 10 µM: 125I-[Sar1, Ile8]-Ang II, semi-quantitative score; for inhibition at 1 µM: compound at 1 μM, read-out: % Displaced radioligand at 1 μM; for inhibition at 10 µM: compound at 10 μM, read-out: % Displaced radioligand at 10 μM; for IC50: HEK-293 cell membranes, read-out: Binding affinity On hAT1R IC50. Put shortly: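 Membranes from HEK-293 cells expressing human AT1R were incubated for one hour at 25° C, pH 7.4, with 0.05 nM radiolabelled [Sar1, Ile8]-Ang II and test ligand. Bound radioactivity was collected on PEI-soaked filters, with 10 μM unlabelled [Sar1]-Ang II defining non-specific binding. Results are percent displacement at 1 μM and […], or IC50 from eight-point duplicate curves.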

As usually defined, the IC50 is the point on the concentration scale where inhibition reaches its midpoint.

SMILES strings stand for the structures.

Chain of human AT1R (P30556 whole entry): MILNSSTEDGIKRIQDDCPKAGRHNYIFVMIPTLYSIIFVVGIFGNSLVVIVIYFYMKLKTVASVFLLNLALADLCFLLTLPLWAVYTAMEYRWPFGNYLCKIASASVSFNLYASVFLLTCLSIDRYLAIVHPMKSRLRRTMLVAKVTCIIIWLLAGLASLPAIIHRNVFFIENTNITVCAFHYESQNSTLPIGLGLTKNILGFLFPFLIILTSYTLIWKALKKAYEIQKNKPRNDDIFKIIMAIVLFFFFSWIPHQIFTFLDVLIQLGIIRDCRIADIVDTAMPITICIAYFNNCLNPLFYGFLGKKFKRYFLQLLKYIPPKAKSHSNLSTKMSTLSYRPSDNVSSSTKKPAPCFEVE
Chain of human AT2R fused to Cb23 (P50052 whole entry, looked up, the tested form may be a part): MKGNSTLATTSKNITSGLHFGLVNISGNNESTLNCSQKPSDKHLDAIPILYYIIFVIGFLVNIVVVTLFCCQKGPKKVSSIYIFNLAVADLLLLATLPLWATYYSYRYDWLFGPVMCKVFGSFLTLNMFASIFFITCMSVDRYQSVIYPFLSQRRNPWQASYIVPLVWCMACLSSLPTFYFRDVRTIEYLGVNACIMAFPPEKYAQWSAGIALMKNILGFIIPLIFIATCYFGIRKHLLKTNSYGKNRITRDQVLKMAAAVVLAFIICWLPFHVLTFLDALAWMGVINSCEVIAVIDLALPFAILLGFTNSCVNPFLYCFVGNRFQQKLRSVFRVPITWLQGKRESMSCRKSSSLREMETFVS

With `c1ccc2sc(CN3CCN(c4cc(N5CCOCC5)ccc4-c4nn[nH]n4)CC3)nc2c1` [Compound A-67, 4-[3-[4-(1,3-benzo-thiazol-2-ylmethyl)-piperazin-1-yl]-4-(2H-tetrazol-5-yl)-phenyl]morpholine], the IC50 in experiment [1] stood at 7110 nM. Moreover, in experiment [2], the inhibition at 1 µM is < 30% and the inhibition at 10 µM is < 30%.
For the compound `c1ccc2sc(CN3CCN(c4cc(OCC5CC5)ccc4-c4nn[nH]n4)CC3)nc2c1` [Compound A-54, 2-[[4-[5-(cyclo-propylmethoxy)-2-(2H-tetrazol-5-yl)-phenyl]piperazin-1-yl]methyl]-1,3-benzothiazole], the IC50 in experiment [1] turned out to be 2070 nM. Moreover, in experiment [2], the inhibition at 1 µM is < 30%, the inhibition at 10 µM was < 30% and the IC50 was found to be 31 µM.
With `CCNc1ccc(C(=O)NS(=O)(=O)CC)c(N2CCN(Cc3nc4ccccc4s3)CC2)c1` [Compound A-44, 2-[4-(1,3-benzo-thiazol-2-ylmethyl)-piperazin-1-yl]-4-(ethylamino)-N-ethylsulfonyl-benz-amide], the IC50 in experiment [1] came to 7180 nM. Also, in experiment [2], the inhibition at 1 µM was < 30%, the inhibition at 10 µM was < 30% and the IC50 stood at 34.9 µM.
As to `CC(C)Cc1cc(F)c(-c2nn[nH]n2)c(N2CCN(Cc3ncc(Cl)cc3F)CC2)c1` [Compound A-205, 1-[(5-chloro-3-fluoro-2-pyridyl)methyl]-4-[3-fluoro-5-isobutyl-2-(2H-tetrazol-5-yl)phenyl]piperazine], the IC50 in experiment [1] is 379 nM. Also, in experiment [2], the inhibition at 1 µM is < 30% and the inhibition at 10 µM is < 30%.
With `CC(C)Cc1cc(F)c(-c2nn[nH]n2)c(N2CCN(Cc3cccnn3)C(C)C2C)c1` (centres unmarked) [Compound A-188, 3-[[4-[3-fluoro-5-isobutyl-2-(2H-tetrazol-5-yl)phen-yl]-2,3-dimethyl-piperazin-1-yl]-methyl]pyridazine], in experiment [1], the IC50 is 13.9 nM. In experiment [2], the inhibition at 1 µM was < 30% and the inhibition at 10 µM was < 30%.
Turning to `CC(C)Cc1ccc(-c2nn[nH]n2)c(N2CCN(Cc3nc4ccccc4s3)CC2)n1` [Compound A-148, 2-[[4-[6-isobutyl-3-(2H-tetrazol-5-yl)-2-pyridyl]piperazin-1-yl]methyl]-1,3-benzothiazole], the IC50 in experiment [1] amounted to 6240 nM. For the same compound, in experiment [2], the inhibition at 1 µM is < 30% and the inhibition at 10 µM is < 30%.
For `COC1CC(Nc2ccc(-c3nn[nH]n3)c(N3CCN(Cc4nc5ccccc5s4)CC3)c2)C1` (centres unmarked) [Compound A-68, 3-[4-(1,3-benzo-thiazol-2-ylmethyl)-piperazin-1-yl]-N-(3-methoxycyclo-butyl)-4-(2H-tetrazol-5-yl)aniline], the IC50 in experiment [1] was 8500 nM. For the same compound, in experiment [2], the inhibition at 1 µM is < 30% and the inhibition at 10 µM was < 30%.
Take `Cc1cnc(CN2CCN(c3cc(CC(C)C)cc(F)c3-c3nn[nH]n3)CC2)s1` [Compound A-220, 2-[[4-[3-fluoro-5-isobutyl-2-(2H-tetrazol-5-yl)phen-yl]piperazin-1-yl]-methyl]-5-methyl-thiazole]: in experiment [1], the IC50 was determined as 80.7 nM. In addition, in experiment [2], the inhibition at 1 µM was < 30% and the inhibition at 10 µM is < 30%.
With `CC(C)Cc1cc(F)c(-c2nn[nH]n2)c(N2CCN(C(C)c3ccccn3)[C@@H](C)C2)c1` (stereo partly drawn) [Compound A-218, (2S)-4-[3-fluoro-5-isobutyl-2-(2H-tetrazol-5-yl)phenyl]-2-methyl-1-[1-(2-pyridyl)ethyl]piperazine], the IC50 in experiment [1] was 122 nM. Besides, in experiment [2], the inhibition at 1 µM was < 30% and the inhibition at 10 µM was < 30%.
Turning to `CC(C)Cc1cc(F)c(-c2nn[nH]n2)c(N2CCN(Cc3cc(C(F)(F)F)ccn3)CC2)c1` [Compound A-202, 1-[3-fluoro-5-isobutyl-2-(2H-tetrazol-5-yl)phenyl]-4-[[4-(trifluoromethyl)-2-pyridyl]methyl]piperazine], the IC50 in experiment [1] was 824 nM. Besides, in experiment [2], the inhibition at 1 µM is < 30% and the inhibition at 10 µM is < 30%.
In the case of `CCS(=O)(=O)NC(=O)c1ccc(C2CC2)cc1N1CCN(Cc2nc3ccccc3s2)CC1` [Compound A-35, 2-[4-(1,3-benzothiazol-2-ylmethyl)piperazin-1-yl]-4-cyclopropyl-N-ethylsulfonyl-benzamide], the half-inhibitory concentration (IC50) in experiment [1] amounted to 602 nM. For the same compound, in experiment [2], the inhibition at 1 µM is < 30%, the inhibition at 10 µM was < 30% and the half-inhibitory concentration (IC50) is 31.4 µM.
In the case of `Cc1noc(C)c1CN1CCN(c2cc(CC(C)C)ccc2-c2nn[nH]n2)CC1` [Compound A-101], in experiment [1], the IC50 amounted to 4480 nM. In experiment [2], the inhibition at 1 µM is < 30% and the inhibition at 10 µM was < 30%.
For `CC(C)Cc1cnc(-c2nn[nH]n2)c(N2CCN(Cc3cccnn3)[C@@H](C)C2)c1` [Compound A-177, 3-[[(2S)-4-[5-isobutyl-2-(2H-tetrazol-5-yl)-3-pyridyl]-2-methyl-piperazin-1-yl]methyl]pyridazine], in experiment [1], the IC50 was 585 nM. Besides, in experiment [2], the inhibition at 1 µM was < 30% and the inhibition at 10 µM is < 30%.
Turning to `CC(C)Oc1cc(N2CCN(Cc3cccnn3)CC2)c(-c2nn[nH]n2)cc1C1CC1` [Compound A-160, 3-[[4-[4-cycloprop-yl-5-isopropoxy-2-(2H-tetrazol-5-yl)-phenyl]piperazin-1-yl]methyl]pyrid-azine], in experiment [1], the IC50 worked out at 4940 nM. In experiment [2], the inhibition at 1 µM was < 30% and the inhibition at 10 µM was < 30%.
On to `Cc1cc(CN2CCN(c3cc(CC(C)C)ccc3-c3nn[nH]n3)CC2)n(C)n1` [Compound A-104, 1-[(2,5-dimethyl-pyrazol-3-yl)meth-yl]-4-[5-isobutyl-2-(2H-tetrazol-5-yl)-phenyl]piperazine], for which the IC50 in experiment [1] came to 6000 nM. In experiment [2], the inhibition at 1 µM was < 30% and the inhibition at 10 µM was < 30%.
`CCS(=O)(=O)NC(=O)c1ccccc1CN1CCN(c2nc3ccccc3s2)CC1` [Compound A-02, 2-[[4-(1,3-benzo-thiazol-2-yl)piper-azin-1-yl]methyl]-N-ethylsulfonyl-benzamide]: the IC50 in experiment [1] was determined as 6210 nM. In experiment [2], the inhibition at 1 µM is < 30% and the inhibition at 10 µM is < 30%.
`CC(C)Cc1ccc(-c2nn[nH]n2)c(N2CCCN(Cc3cccnn3)CC2)c1` [Compound A-230, 1-[5-isobutyl-2-(2H-tetrazol-5-yl)-phenyl]-4-(pyrid-azin-3-ylmethyl)-1,4-diazepane]: the IC50 in experiment [1] was 1230 nM. In experiment [2], the inhibition at 1 µM is < 30% and the inhibition at 10 µM was < 30%.
Consider `COc1c(C)cnc(CN2CCN(c3cc(CC(C)C)cc(F)c3-c3nn[nH]n3)CC2)c1C` [Compound A-200, 1-[3-fluoro-5-isobutyl-2-(2H-tetrazol-5-yl)phen-yl]-4-[(4-methoxy-3,5-dimethyl-2-pyridyl)methyl]-piperazine], for which, in experiment [1], the IC50 came to 1060 nM. In addition, in experiment [2], the inhibition at 1 µM was < 30% and the inhibition at 10 µM was < 30%.
For the compound `CC(C)Cc1cc(F)c(-c2nn[nH]n2)c(N2CCN(C(=O)c3cccnn3)CC2)c1` [Compound A-213, [4-[3-fluoro-5-isobutyl-2-(2H-tetrazol-5-yl)phenyl]piperazin-1-yl]-pyridazin-3-yl-methanone], the IC50 in experiment [1] was found to be 389 nM. In addition, in experiment [2], the inhibition at 1 µM was < 30% and the inhibition at 10 µM is < 30%.
For the compound `CC(C)Cc1cc(N2CCN(Cc3nc4ccccc4s3)CC2)c(-c2nn[nH]n2)cc1N` [Compound A-138, 4-[4-(1,3-benzo-thiazol-2-ylmethyl)-piperazin-1-yl]-2-isobutyl-5-(2H-tetrazol-5-yl)aniline], the half-inhibitory concentration (IC50) in experiment [1] was determined as 4710 nM. In addition, in experiment [2], the inhibition at 1 µM is < 30% and the inhibition at 10 µM was < 30%.
As to `CCCOc1ccc(C(=O)NS(=O)(=O)CC)c(N2CCN(Cc3nc4ccccc4s3)CC2)c1` [Compound A-42, 2-[4-(1,3-benzothiazol-2-ylmethyl)piperazin-1-yl]-N-ethylsulfonyl-4-propoxy-benzamide], the concentration for half-maximal inhibition (IC50) in experiment [1] worked out at 17700 nM. Moreover, in experiment [2], the inhibition at 1 µM is < 30%, the inhibition at 10 µM was in the range of 30 to 50% and the IC50 stood at 26.3 µM.
Consider `CC(C)Cc1cc(F)c(-c2nn[nH]n2)c(N2C[C@H](C)N(Cc3cccnn3)[C@@H](C)C2)c1` [Compound A-187, 3-[[(2S,6S)-4-[3-fluoro-5-isobutyl-2-(2H-tetrazol-5-yl)-phenyl]-2,6-dimeth-yl-piperazin-1-yl]-methyl]pyridazine], for which the IC50 in experiment [1] came to 7.26 nM. Also, in experiment [2], the inhibition at 1 µM was < 30% and the inhibition at 10 µM was < 30%.
As to `Cc1cnc(CN2CCN(c3cc(CC(C)C)cc(F)c3-c3nn[nH]n3)CC2)c(C)c1` [Compound A-197, 1-[(3,5-dimethyl-2-pyridyl)methyl]-4-[3-fluoro-5-isobutyl-2-(2H-tetrazol-5-yl)phenyl]piperazine], the IC50 in experiment [1] was found to be 203 nM. In addition, in experiment [2], the inhibition at 1 µM was < 30% and the inhibition at 10 µM was < 30%.
In the case of `CC(C)=Cc1ccc(-c2nn[nH]n2)c(N2CCN(Cc3nc4ccccc4n3C)CC2)c1` [Compound A-21, 1-methyl-2-[[4-[5-(2-methylprop-1-enyl)-2-(2H-tetrazol-5-yl)phen-yl]piperazin-1-yl]-methyl]benzimid-azole], the IC50 in experiment [1] was found to be 488 nM. In experiment [2], the inhibition at 1 µM was < 30%, the inhibition at 10 µM is < 30% and the IC50 amounted to 41.7 µM.
